Test results: US9937133B2, “Treatment of fibrosis” (UCL BUSINESS PLC, priority 2014, dated 2018)
Where two headings read alike, the source gives them in different places.

What was measured:
Assay type in all cases: cell-based, human
[1] = test system: F-PemI and F-PemU fibroblasts; test: Matrix contraction by OcMMP fibroblasts after ALDH inhibition
Description: (§1) Next the ability of F-PemI and F-PemU fibroblasts to organise matrix through matrix contraction was investigated. […] This diminished contractile profile was similar in F-PemI and F-PemU fibroblasts.
(§2) To find out whether ALDH1A3 was also contributing to this phenotypic contractility we looked at the contractile profiles of F-PemI, F-PemU and F-C fibroblasts after DEAB or disulfiram ALDH inhibition.

[2] = test system: F-PemI and F-PemU fibroblasts; test: Collagen production of OcMMP fibroblasts after ALDH inhibition (collagen type I competitive ELISA)
Protocol: To investigate whether there was differential matrix production in OcMMP, primary conjunctival fibroblasts explanted from conjunctival tissue samples from OcMMP patients with (F-PemI) and without (F-PemU) and control (F-C) patients were analysed for their matrix production and secretion (see FIG. 2A).
To ascertain whether this enhanced collagen production was mediated by ALDH1A3, the collagen production profiles of F-PemI, F-PemU and F-C fibroblasts were assessed after ALDH inhibition with DEAB or disulfiram (see FIGS. 2B to 2E, where “+” and “−” indicate the presence or absence of DEAB/disulfiram respectively).
A competitive ELISA (MD Bioproducts, Zurich, Germany) method was used to quantify the matrix production from a monolayer of F-C, F-PemU and F-PemI fibroblasts. The competitive assay is a colormetric based immunoassay utilises a biotinylated polyclonal antibody to Collagen Type I and purified human collagen type I as an antigen. […]
Each experiment was carried out per manufacturer's instructions and performed with at least 4 experimental repeats and 3 biological repeats. […] Another method that has been noted for quantifying the level of collagen production in OcMMP fibroblasts is Q-PCR quantification of collagen type 1 mRNA expression post TGF-β induction (Razzaque et al., 2003, Investigative ophthalmology and visual science, 44: 3417-3423, 1616-1621 and 1998-2003). […]

[3] = test system: F-PemI and F-PemU fibroblasts; test: Alpha-smooth muscle actin alignment under a stressed matrix
Description: Finally to have an indication of the differentiation capacity of F-PemI and F-PemU fibroblasts, their expression and alignment of alpha-smooth muscle actin under a stressed matrix was investigated. F-PemI and F-PemU lack the ability to align their alpha-smooth muscle actin into stress fibers when compared to F-C fibroblasts. The diminished alignment of alpha-smooth muscle actin was similar in both F-PemI and F-PemU fibroblasts.
To elucidate whether ALDH1A3 is contributing to this impaired alignment of alpha-smooth muscle actin in F-PemI and F-PemU fibroblasts, their alpha-smooth muscle actin alignment was imaged after being treated with DEAB and disulfiram.

[4] = test system: F-C fibroblasts; test: Matrix contraction by control fibroblasts after ALDH inhibition
Description: as §1, §2

[5] = test system: F-PemI and F-PemU fibroblasts; test: Proliferation of OcMMP fibroblasts after ALDH inhibition
Protocol: The proliferative capacity of F-PemI, F-PemU and F-C fibroblasts was also assessed. […] The proliferative capacities of F-PemI and F-PemU were similar (see FIG. 4A).
To find out whether ALDH1A3 also mediates this anti-proliferative phenotype we monitored the proliferation of F-PemI, F-PemU and F-C fibroblasts after addition of DEAB or disulfiram.

For `CCN(CC)c1ccc(C=O)cc1` [DEAB, 4-(diethylamino)benzaldehyde], the “contractility of F-PemI and F-PemU fibroblasts” value ([1]; increasing concentrations) was “increased the contractility of F-PemI and F-PemU fibroblasts in a dose dependent manner”, the “contraction of F-PemI and F-PemU fibroblasts” value ([1]; lowest concentration of 10^−7M) was “control cell levels of contraction” and the “F-PemI and F-PemU fibroblast collagen production” value ([2]; 10^−7M) was “brought down to control cell levels”. The “F-PemI and F-PemU fibroblast collagen production” value ([2]; increasing concentrations) was “dose dependent and significant decrease”, the “alignment of alpha-smooth muscle actin in F-PemI and F-PemU fibroblasts” value [3] was “markedly improved the alignment” and the “contractile profile of F-C fibroblasts” value [4] was “did not have any significant effects”. For the same compound, the “proliferation of F-PemI and F-PemU fibroblasts” value [5] was “proliferating at a significantly enhanced rate” and the “proliferation of F-PemI and F-PemU fibroblasts” value ([5]; lowest concentration of 10^−7M) was “proliferated at similar level to F-C fibroblasts”.
